Measured values from patent US12708676B2, “Phosphate compounds for detecting neurological disorders” (Amydis, Inc., priority 2018, dated 2026).
Converted amounts (≈) assume the structure as drawn. Where two headings read alike, the source gives them in different places.

Assays:
[1] = Solubility of Compound 7 in various media; assay type: physicochemical
Description: The physical properties of Compound 7 were determined.

[2] = Rabbit pharmacokinetics of Compound 9, Study 1 (retina, brain, blood); assay type: in vivo; conditions: for concentration at 15 min / concentration at 30 min / concentration at 60 min: Study 1, 30 mg Compound 9 injected
Description: Compound 9 was injected into rabbits as a solution in 0.1 M phosphate buffer, pH 7.4 such that rabbits received either 30 mg of Compound 9 (Study 1) or 28 mg of Compound 9 (Study 2). The purpose of these studies was to confirm that Compound 9 could easily be converted into Compound 7 in vivo.
Study 1: Rabbits received a 1.5 mL injection of a 20 mg/mL solution of Compound 9 in 0.1 M phosphate buffer, pH 7.4. Rabbits were sacrificed at the specified time points (N=3 per time point) in the tables below and the average concentration of Compound 9 and Compound 7 was determined in the retina (Table 3), brain (Table 4) and blood (Table 5).

aggregated Aβ = aggregated Aβ (Homo sapiens, UniProt P05067); experiment: Fluorescent detection of Aβ in vitro; assay type: binding
Aβ = experiment: Example 4: detection of Aβ in the retina of a TBI (blast) mouse model; assay type: in vivo; conditions: after Compound 9 intravenously, example in present tense
Description: This example is conducted to determine whether Compound 9 detects Aβ in the retina of a TBI mouse model.
Blast model mice 24 hours after injury and a non-injured mouse are administered Compound 9 intravenously. Mice retinas are scanned by scanning laser ophthalmoscopy (SLO).
Alternatively, or in addition to retinal scanning, retinal tissues are removed and stained with an anti-Aβ antibody (6E10).

prion deposits = prion deposits (Mus musculus, UniProt P04925); assay type: in vivo; conditions: administered as Compound 10
Aβ40 [3] = target: Aβ40 (Homo sapiens, UniProt P05067, D694N/E693Q); experiment: Example 8: in vivo retinal imaging and ex vivo IHC of APPSwDI, PSAPP and wild type mice; set-up: species or system mouse; conditions: APPSwDI mouse
Aβ40 [4] = experiment: as above; set-up: species or system mouse; conditions: PSAPP mouse
[5] = target: amyloid deposits associated with CAA (Homo sapiens, UniProt P05067); experiment: Example 8: ex vivo staining of human CAA brain tissue; assay type: binding
From the text: Post-mortem brain tissue from patients diagnosed with CAA were examined to de-risk the translation from the limited robust preclinical animal models to humans. This study was designed to understand the fundamental basis of fluorescently detecting amyloids using human tissue. […] Human CAA brain tissue and healthy control brain tissue was acquired (University of California, San Diego, CA). […] All CAA patients were female and ranged in age from 70-93 years. Control brains were obtained from cognitively normal patients that ranged in age from 82-94 years from both male and female donors.

α-syn deposits = α-syn deposits (Homo sapiens, UniProt P37840); experiment: Example 9: retinal imaging of Line 61 Parkinson's Disease Tg mouse model; assay type: in vivo
From the text: Two transgenic mouse models of Parkinson's Disease (D-line and Line 61) were examined for retinal α-syn deposits. The models selected produce α-syn deposition in the brain, but to date production in the retina had not been determined. […] After live imaging, mice were sacrificed, and the brain and retina were harvested for immunofluorescence and biochemistry.
Accordingly, Line 61 model manifest retinal α-syn in ~30% of mice and was useful in showing the utility of the disclosed compounds. […] Brain tissue was extracted post-mortem from mice after the last imaging session and stained with DAPI and a SYN1 antibody confirming the presence of α-syn in the Line 61 Mouse brain.
To confirm objects detected in vivo were α-syn, retinal tissue was extracted post-mortem from mice after the last imaging session and stained with DAPI and a SYN1 antibody (FIG. 11).

alpha-synuclein = alpha-synuclein (Homo sapiens, UniProt P37840); experiment: Example 9: ex vivo flatmount staining of human retinas with Compound 7 and SYN-1 Ab; assay type: binding; conditions: for Average No. of co-stained objects / Average No. of singly-stained objects: PD retina, per ~250,000 μm^2 area; for Average No. of co-stained objects: co-stained with SYN-1; for Co-localization with alpha-synuclein (SYN-1 Ab): 60 μM Compound 7
Description: To understand if Compound 7 (active drug) can detect retinal α-syn in human eyes, human retinal tissue was extracted post-mortem from both a healthy patient and a patient diagnosed with Parkinson's Disease, and stained with Compound 7, DAPI and a SYN1 antibody.
Eye dissection: Cornea, iris and lens were removed from the eye cup and the eye placed into 4% PFA for 1 hour. […] The different regions were mounted on separate slides.
Flatmount retinal staining: The tissue was fixed in room temperature 4% PFA for 20 minutes, washed, permeabilized, blocked (2.5% goat serum in PBST), stained with Alpha-synuclein antibody (SYN-1) at a dilution of 1:1000 and incubate overnight at 4° C., washed with PBST (3 times for 5 minutes), incubated with secondary antibody (Alexa fluor 647 anti-mouse) in dark for 1 hr at RT. The tissue was then washed with PB ST (3 times for 5 minutes), incubated with 60 μM Compound 7 for 30 minutes at RT, washed with PBS (3 times for 10 minutes), incubate with DAPI (300 nM or 100 ng/mL) in dark for 10 minutes, and washed with PBS (3 times for 5 minutes). The tissue was then mounted using antifade DAKO mounting media.
To determine the number of objects co-stained with Compound 7 and SYN1, the average number of objects co-stained with Compound 7 and SYN1 was quantified. This was completed for each quadrant of both the left and right eye (Table 10 and Table 11).

Aβ plaques = Aβ plaques (Homo sapiens, UniProt P05067); experiment: Example 7: ex vivo staining of human Alzheimer's disease tissue, co-localization with 6E10
[6] = blood, other: injection (site not specified), read-out: Avg Conc., blood
[7] = retina, other: injection (kind of injection not stated), read-out: Avg Conc., retina
[8] = 15 minutes after iv Compound 10
[9] = labelling from in vivo injection of Compound 10

Sequence of prion deposits (P04925 23-230 limits assumed): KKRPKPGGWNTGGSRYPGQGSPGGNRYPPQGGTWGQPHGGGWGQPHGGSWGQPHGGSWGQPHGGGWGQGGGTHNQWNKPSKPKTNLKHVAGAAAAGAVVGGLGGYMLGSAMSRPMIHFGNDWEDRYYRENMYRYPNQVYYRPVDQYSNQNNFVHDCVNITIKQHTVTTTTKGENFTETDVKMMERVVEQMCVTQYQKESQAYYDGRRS

N#C/C(=C\c1ccc2cc(N3CCCCC3)ccc2c1)C(=O)NCCOCCOCCO [Compound 7, (E)-2-cyano-N-(2-(2-(2-hydroxyethoxy)ethoxy)ethyl)-3-(6-(piperidin-1-yl)naphthalen-2-yl)acrylamide]
solubility ([1]; SGF, simulated gastric fluid): 3600 µg/mL (≈ 8230 µM)
solubility ([1]; castor oil, oil or lipid): > 9000 µg/mL
solubility ([1]; n-octanol, organic solvent or mixture): > 8000 µg/mL
solubility ([1]; pH 4.0 buffer, pH 4, aqueous buffer): 70 µg/mL (≈ 160 µM)
solubility ([1]; pH 7.0 buffer, pH 7, aqueous buffer): 4.6 µg/mL (≈ 10.5 µM)
solubility ([1]; pH 7.4 buffer, pH 7.4, aqueous buffer): 3.3 µg/mL (≈ 7.54 µM)
solubility ([1]; pH 9.0 buffer, pH 9, aqueous buffer): 4.8 µg/mL (≈ 11 µM)
solubility ([1]; water): 1.7 µg/mL (≈ 3.89 µM)
Kp,brain by 30 minutes ([2]; 30 minutes after injection of Compound 9): significantly decreased to undetectable values
concentration at 15 min [2, 6]: 217 ± 31.2 ng/mL
concentration at 30 min [2, 6]: 9.41 ± 1.89 ng/mL
concentration at 60 min [2, 6]: 2.1 ± 2.43 ng/mL
concentration at 15 min ([2]; brain, other: injection (site not specified), read-out: Avg Conc., brain): 0.987 ± 0.273 ng/g
Circulation time in the retina ([2]; levels significantly decreasing over an hour): relatively short
concentration at 15 min [2, 7]: 10.1 ± 7.3 ng/g
concentration at 30 min [2, 7]: 2.13 ± 1.71 ng/g
concentration at 60 min [2, 7]: 0.779 ± 0.325 ng/g
Detection of aggregated Aβ in vitro (aggregated Aβ): demonstrated the ability to detect aggregated Aβ
Fluorescent labelling of retinal deposits (Aβ; mouse with blast injury): fluorescently labels retinal deposits that are visible upon fluorescent activation
Fluorescent enhancement in retinal tissue (Aβ; uninjured mouse): does not display any fluorescent enhancement
Labelling of retinal prion deposits in vivo (prion deposits; pre-symptomatic prion-inoculated mice): successfully labelled large objects around the optic disk and vasculature believed to be prion deposits
Labelling of retinal prion deposits in vivo (prion deposits; terminally diseased prion mice): successfully labelled large objects around the optic disk and vasculature believed to be prion deposits
Labelling in brain sections, ex vivo IHC (Aβ40 [3]; [8]): amyloid deposits along a vessel labeled with Compound 7 and 6E10
Structures labelled in retinal tissue (Aβ40 [3]; administered as Compound 10): labels both vessels and diffuse deposits in the retinal tissue
Co-localization with 6E10 in retina, ex vivo IHC (Aβ40 [3]; [9]): co-localized with a sequence specific antibody for Aβ (6E10)
Labelling in brain sections, ex vivo IHC (Aβ40 [4]; [8]): labeling of amyloid plaques with Compound 7 and 6E10
Co-localization with 6E10 in retina, ex vivo IHC (Aβ40 [4]; [9]): co-localization of Compound 7 with 6E10
Staining ([5]; healthy control human brains): absent
Staining of amyloid deposits ([5]; human CAA brains): successfully stains amyloid deposits associated with CAA
Specificity for α-syn deposits (α-syn deposits; Line 61 model, via administration of Compound 10): specific for α-syn deposits associated with Parkinson's Disease
Co-localization with SYN1 (α-syn deposits; brain and retinal tissue of Tg mice): co-localizes with an anti-alpha-synuclein antibody (SYN1)
Average No. of co-stained objects (alpha-synuclein; left eye, Inferior): 13.6
Average No. of singly-stained objects (alpha-synuclein; left eye, Inferior): 0.87
Average No. of co-stained objects (alpha-synuclein; left eye, Nasal): 13
Average No. of singly-stained objects (alpha-synuclein; left eye, Nasal): 0.75
Average No. of co-stained objects (alpha-synuclein; left eye, Superior): 20
Average No. of singly-stained objects (alpha-synuclein; left eye, Superior): 0.25
Average No. of co-stained objects (alpha-synuclein; left eye, Temporal): 12.37
Average No. of singly-stained objects (alpha-synuclein; left eye, Temporal): 0.5
Average No. of co-stained objects (alpha-synuclein; right eye, Inferior): 12.12
Average No. of singly-stained objects (alpha-synuclein; right eye, Inferior): 0.75
Average No. of co-stained objects (alpha-synuclein; right eye, Nasal): 14.3
Average No. of singly-stained objects (alpha-synuclein; right eye, Nasal): 1.75
Average No. of co-stained objects (alpha-synuclein; right eye, Superior): 16
Average No. of singly-stained objects (alpha-synuclein; right eye, Superior): 0.5
Average No. of co-stained objects (alpha-synuclein; right eye, Temporal): 11.62
Average No. of singly-stained objects (alpha-synuclein; right eye, Temporal): 0.5
Co-localization with alpha-synuclein (SYN-1 Ab) (alpha-synuclein; post-mortem retinas of healthy human patient): very little or no co-localization
Co-localization with alpha-synuclein (SYN-1 Ab) (alpha-synuclein; post-mortem retinas of human PD patient): co-localization of Compound 7 and Alpha-Synuclein deposits (SYN-1 Ab) in all regions
Binding to Aβ plaques in human tissue (Aβ plaques; brain and retinal tissue of human Alzheimer's patients): bind to Aβ plaques in both brain and retinal tissue
Detection of aggregated Aβ ex vivo (Aβ plaques; ex vivo, human Alzheimer's brain tissue): demonstrated the ability to detect aggregated Aβ
